Tests used:
[1] = target: T1, Cbl-b (Homo sapiens, UniProt Q13191); experiment: Cbl-b Degradation Method A (FACS, anti-Cbl-b antibody staining); format: cell-based; settings: Cbl-b-HiBit KI Jurkat Cells, incubated at least 20 hours; for DC50: half maximal degradation, read-out: Cbl-b Degredation Method A IC50; for Dmax: Jurkat, maximum degradation observed, read-out: Cbl-b Degredation Method A Dmax (%)
T1 construct: Cbl-b-HiBit KI Jurkat Cells were purchased from Promega; host or cells: Cbl-b-HiBiT knock-in Jurkat cells
How it was run: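 Readout is flow cytometry of fixed, permeabilized cells immunostained for Cbl-b (primary 1:200, AF488 secondary). Cells were Cbl-b-HiBit knock-in Jurkat, exposed to compound ≥20 h at 37 °C; half-maximal degradation concentration (DC50) and maximal degradation (Dmax) calculated relative to control.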

[2] = target: T1, Cbl-b; experiment: Cbl-b Degradation Method B (Nano-Glo HiBiT lytic detection); format: cell-based; settings: Cbl-b-HiBit KI Jurkat Cells, incubated at least 6-24 hours; for DC50: half maximal degradation, read-out: Cbl-b Degredation Method B IC50; for Dmax: read-out: Cbl-b Degredation Method B Dmax (%)
How it was run: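 An 11-point, 3-fold compound dilution was applied for 6-24 hours to Jurkat cells carrying HiBiT-tagged endogenous Cbl-b. Lytic HiBiT luminescence quantified residual protein. Outputs are DC50 and Dmax relative to DMSO control.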

T1 sequence (Q13191 whole entry): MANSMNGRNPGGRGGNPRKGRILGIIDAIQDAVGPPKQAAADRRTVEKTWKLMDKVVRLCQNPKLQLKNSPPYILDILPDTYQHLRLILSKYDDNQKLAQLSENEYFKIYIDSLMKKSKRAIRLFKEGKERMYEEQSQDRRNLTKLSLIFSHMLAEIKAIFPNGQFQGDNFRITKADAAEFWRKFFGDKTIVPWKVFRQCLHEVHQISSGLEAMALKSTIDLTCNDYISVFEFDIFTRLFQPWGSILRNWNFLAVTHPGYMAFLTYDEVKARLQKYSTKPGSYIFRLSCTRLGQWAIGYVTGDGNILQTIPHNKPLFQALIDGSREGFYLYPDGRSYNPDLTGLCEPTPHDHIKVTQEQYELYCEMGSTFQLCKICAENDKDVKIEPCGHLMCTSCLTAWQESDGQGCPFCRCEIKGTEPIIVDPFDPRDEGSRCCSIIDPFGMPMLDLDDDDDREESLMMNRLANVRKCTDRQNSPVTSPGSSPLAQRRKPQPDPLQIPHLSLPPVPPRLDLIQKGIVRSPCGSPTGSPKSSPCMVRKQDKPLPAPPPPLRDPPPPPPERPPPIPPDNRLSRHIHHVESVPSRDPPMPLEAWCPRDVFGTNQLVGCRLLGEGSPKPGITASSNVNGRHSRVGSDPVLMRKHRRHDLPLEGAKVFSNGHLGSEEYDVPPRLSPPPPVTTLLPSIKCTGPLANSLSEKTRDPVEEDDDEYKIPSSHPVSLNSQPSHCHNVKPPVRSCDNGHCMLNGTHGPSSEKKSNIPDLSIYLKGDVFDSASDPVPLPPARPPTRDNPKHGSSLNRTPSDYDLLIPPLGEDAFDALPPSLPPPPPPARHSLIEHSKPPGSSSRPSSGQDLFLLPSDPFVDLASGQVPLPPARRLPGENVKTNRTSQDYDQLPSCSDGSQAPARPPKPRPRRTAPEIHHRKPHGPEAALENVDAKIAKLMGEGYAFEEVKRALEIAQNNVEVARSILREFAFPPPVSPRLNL

DC50 [1] | DC50 [2] | Dmax [1] | Dmax ([2]; maximum degradation observed) | Cbl-b Degredation Method B Dmax (%) ([2]; maximum degradation observed) | Compound
0.005 to 0.05 µM | < 0.005 µM | 35 to 70% | 35 to 70% |  | COc1c(N2CCC(O[C@H]3CC[C@H](CN4CCC5(CC4)CN(c4cc6c(c(C(F)(F)F)c4)CN(c4cccc([C@]7(Cc8nncn8C)C[C@@H](C#N)C7)c4)C6=O)C5)CC3)CC2)ccc2c1CN(C1CCC(=O)NC1=O)C2=O (stereo partly shown) [Example 186, (1r,3r)-3-[(4-methyl-4H-1,2,4-triazol-3-yl)methyl]-3-{3-[1-oxo-6-(7-{[(1r,4r)-4-({1-[2-(2,6-dioxopiperidin-3-yl)-4-methoxy-1-oxo-2,3-dihydro-1H-isoindol-5-yl]piperidin-4-yl}oxy)cyclohexyl]methyl}-2,7-diazaspiro[3.5]nonan-2-yl)-4-(trifluoromethyl)-2,3-dihydro-1H-isoindol-2-yl]phenyl}cyclobutane-1-carbonitrile]
0.005 to 0.05 µM | < 0.005 µM | > 70% | 35 to 70% |  | Cc1cc(N2CCC(CN3CCC4(CC3)CN(c3cc5c(c(C(F)(F)F)c3)CN(c3cccc([C@]6(Cc7nncn7C)C[C@@H](C#N)C6)c3)C5=O)C4)CC2)c(F)c2c1C(=O)N(C1CCC(=O)NC1=O)C2 (stereo partly shown) [Example 171, (1r,3r)-3-(3-{6-[7-({1-[2-(2,6-dioxopiperidin-3-yl)-4-fluoro-7-methyl-1-oxo-2,3-dihydro-1H-isoindol-5-yl]piperidin-4-yl}methyl)-2,7-diazaspiro[3.5]nonan-2-yl]-1-oxo-4-(trifluoromethyl)-2,3-dihydro-1H-isoindol-2-yl}phenyl)-3-[(4-methyl-4H-1,2,4-triazol-3-yl)methyl]cyclobutane-1-carbonitrile]
< 0.005 µM | < 0.005 µM | > 70% | > 70% |  | Cn1cnnc1CC1(c2cccc(N3Cc4c(cc(CN5CCC[C@H](CN6CCN(C[C@H]7CC[C@@H](OC8CCN(c9ccc%10c(c9Cl)CN(C9CCC(=O)NC9=O)C%10=O)CC8)CC7)CC6)C5)cc4C(F)(F)F)C3=O)c2)COC1 (stereo partly drawn) [Example 165, 3-[4-chloro-1-oxo-5-(4-{[(1r,4r)-4-[(4-{[(3S)-1-{[2-(3-{3-[(4-methyl-4H-1,2,4-triazol-3-yl)methyl]oxetan-3-yl}phenyl)-3-oxo-7-(trifluoromethyl)-2,3-dihydro-1H-isoindol-5-yl]methyl}piperidin-3-yl]methyl}piperazin-1-yl)methyl]cyclohexyl]oxy}piperidin-1-yl)-2,3-dihydro-1H-isoindol-2-yl]piperidine-2,6-dione]
0.005 to 0.05 µM | < 0.005 µM | > 70% | 35 to 70% |  | CC1c2nc(N3CCC(O[C@H]4CC[C@H](CN5CCN(Cc6cc7c(c(C(F)(F)F)c6)CN(c6cccc(C8(Cc9nncn9C)CCC8)c6)C7=O)CC5)CC4)CC3)ccc2C(=O)N1C1CCC(=O)NC1=O (mixture of isomers) [Example 232, rac-3-[7-methyl-5-oxo-2-(4-{[(1r,4r)-4-[(4-{[2-(3-{1-[(4-methyl-4H-1,2,4-triazol-3-yl)methyl]cyclobutyl}phenyl)-3-oxo-7-(trifluoromethyl)-2,3-dihydro-1H-isoindol-5-yl]methyl}piperazin-1-yl)methyl]cyclohexyl]oxy}piperidin-1-yl)-5H,6H,7H-pyrrolo[3,4-b]pyridin-6-yl]piperidine-2,6-dione]
0.05 to 0.5 µM | < 0.005 µM | 35 to 70% |  | C (C ≤ 35) | C[C@@H]1c2nc(N3CCC(O[C@H]4CC[C@H](CN5CCN(Cc6cc7c(c(C(F)(F)F)c6)CN(c6cccc(C8(Cc9nncn9C)CC(C#N)C8)c6)C7=O)C6(CC6)C5)CC4)CC3)ccc2C(=O)N1C1CCC(=O)NC1=O (single isomer, unassigned) [Example 304, (1r***,3r***)-3-[(4-methyl-4H-1,2,4-triazol-3-yl)methyl]-3-(3-{1-oxo-6-[(7-{[(1r**,4r**)-4-({1-[(7R*)-6-(2,6-dioxopiperidin-3-yl)-7-methyl-5-oxo-5H,6H,7H-pyrrolo[3,4-b]pyridin-2-yl]piperidin-4-yl}oxy)cyclohexyl]methyl}-4,7-diazaspiro[2.5]octan-4-yl)methyl]-4-(trifluoromethyl)-2,3-dihydro-1H-isoindol-2-yl}phenyl)cyclobutane-1-carbonitrile]

The remaining lines, values behind:

Compound | DC50 [1] | DC50 [2] | Dmax [1] | Dmax ([2]; maximum degradation observed) | Cbl-b Degredation Method B Dmax (%) ([2]; maximum degradation observed)
Cn1cnnc1CC1(c2cccc(N3Cc4c(cc(CN5CCC(CN6CCC7(CC6)CCN(c6ccc8c(c6)C(=O)N(C6CCC(=O)NC6=O)C8=O)CC7)CC5)cc4C(F)(F)F)C3=O)c2)COC1 (stereo not shown) [Example 29, 2-(2,6-dioxopiperidin-3-yl)-5-{9-[(1-{[2-(3-{3-[(4-methyl-4H-1,2,4-triazol-3-yl)methyl]oxetan-3-yl}phenyl)-3-oxo-7-(trifluoromethyl)-2,3-dihydro-1H-isoindol-5-yl]methyl}piperidin-4-yl)methyl]-3,9-diazaspiro[5.5]undecan-3-yl}-2,3-dihydro-1H-isoindole-1,3-dione] | > 0.5 µM | > 0.5 µM |  |  | 
C[C@@H]1C[C@@H](CN2CCN(c3ccc4c(c3)C(=O)N(C3CCC(=O)NC3=O)C4=O)CC2)CN(Cc2cc3c(c(C(F)(F)F)c2)CN(c2cccc(C4(Cc5nncn5C)COC4)c2)C3=O)C1 (stereo partly drawn) [Example 86, 2-(2,6-dioxopiperidin-3-yl)-5-(4-{[(3R,5R)-5-methyl-1-{[2-(3-{3-[(4-methyl-4H-1,2,4-triazol-3-yl)methyl]oxetan-3-yl}phenyl)-3-oxo-7-(trifluoromethyl)-2,3-dihydro-1H-isoindol-5-yl]methyl}piperidin-3-yl]methyl}piperazin-1-yl)-2,3-dihydro-1H-isoindole-1,3-dione] | > 0.5 µM | > 0.5 µM |  |  | 
Cn1cnnc1CC1(c2cccc(N3Cc4c(cc(CN5CCC(COCCOCCOc6cccc7c6C(=O)N(C6CCC(=O)NC6=O)C7=O)CC5)cc4C(F)(F)F)C3=O)c2)COC1 (stereo not shown) [Example 91, 2-(2,6-dioxopiperidin-3-yl)-4-(2-{2-[(1-{[2-(3-{3-[(4-methyl-4H-1,2,4-triazol-3-yl)methyl]oxetan-3-yl}phenyl)-3-oxo-7-(trifluoromethyl)-2,3-dihydro-1H-isoindol-5-yl]methyl}piperidin-4-yl)methoxy]ethoxy}ethoxy)-2,3-dihydro-1H-isoindole-1,3-dione] | > 0.5 µM | > 0.5 µM |  |  | 
Cn1cnnc1CC1(c2cccc(N3Cc4c(cc(CN5CCN(C[C@H]6CC[C@H](OC7CCN(c8ccc9c(c8F)CN(C8CCC(=O)NC8=O)C9=O)CC7)CC6)CC5)cc4C(F)(F)F)C3=O)c2)COC1 (stereo partly shown) [Example 2, 3-[4-fluoro-1-oxo-5-(4-{[(1r, 4r)-4-[(4-{[2-(3-{3-[(4-methyl-4H-1,2,4-triazol-3-yl)methyl]oxetan-3-yl}phenyl)-3-oxo-7-(trifluoromethyl)-2,3-dihydro-1H-isoindol-5-yl]methyl}piperazin-1-yl)methyl]cyclohexyl]oxy}piperidin-1-yl)-2,3-dihydro-1H-isoindol-2-yl]piperidine-2,6-dione] | < 0.005 µM | < 0.005 µM | > 70% | 35 to 70% | 
Cn1cnnc1CC1(c2cccc(N3Cc4c(cc(N5CCC(CN6CC7(CCN(c8ccc9c(c8)C(=O)N(C8CCC(=O)NC8=O)C9=O)CC7)C6)CC5)cc4C(F)(F)F)C3=O)c2)COC1 (stereo not shown) [Example 11, 2-(2,6-dioxo-3-piperidyl)-5-[2-[[1-[2-[3-[3-[(4-methyl-1,2,4-triazol-3-yl)methyl]oxetan-3-yl]phenyl]-3-oxo-7-(trifluoromethyl)isoindolin-5-yl]-4-piperidyl]methyl]-2,7-diazaspiro[3.5]nonan-7-yl]isoindoline-1,3-dione] | 0.005 to 0.05 µM | 0.005 to 0.05 µM | < 35% | < 35% | 
Cn1cnnc1CC1(c2cccc(N3Cc4c(cc(N5CC(C6CCN(c7ccc8c(c7)C(=O)N(C7CCC(=O)NC7=O)C8=O)CC6)C5)cc4C(F)(F)F)C3=O)c2)COC1 (stereo not shown) [Example 129, 2-(2,6-dioxopiperidin-3-yl)-5-(4-{1-[2-(3-{3-[(4-methyl-4H-1,2,4-triazol-3-yl)methyl]oxetan-3-yl}phenyl)-3-oxo-7-(trifluoromethyl)-2,3-dihydro-1H-isoindol-5-yl]azetidin-3-yl}piperidin-1-yl)-2,3-dihydro-1H-isoindole-1,3-dione] | 0.05 to 0.5 µM | > 0.5 µM |  |  | 
Cn1cnnc1CC1(c2cccc(N3Cc4c(cc(CN5CCN(C[C@H]6CC[C@H](OC7CCN(c8ccc9c(c8)C(=O)N(C8CCC(=O)NC8=O)C9=O)CC7)CC6)CC5)cc4C(F)(F)F)C3=O)c2)COC1 (stereo partly shown) [Example 22, 2-(2,6-dioxo-3-piperidyl)-5-[4-[4-[[4-[[2-[3-[3-[(4-methyl-1,2,4-triazol-3-yl)methyl]oxetan-3-yl]phenyl]-3-oxo-7-(trifluoromethyl)isoindolin-5-yl]methyl]piperazin-1-yl]methyl]cyclohexoxy]-1-piperidyl]isoindoline-1,3-dione] | 0.005 to 0.05 µM | < 0.005 µM | 35 to 70% | 35 to 70% | 
Cn1cnnc1CC1(c2cccc(N3Cc4c(cc(N5CCC(COCCOc6ccc7c(c6)C(=O)N(C6CCC(=O)NC6=O)C7=O)CC5)cc4C(F)(F)F)C3=O)c2)COC1 (stereo not shown) [Example 15, 2-(2,6-dioxo-3-piperidyl)-5-[2-[[1-[2-[3-[3-[(4-methyl-1,2,4-triazol-3-yl)methyl]oxetan-3-yl]phenyl]-3-oxo-7-(trifluoromethyl)isoindolin-5-yl]-4-piperidyl]methoxy]ethoxy]isoindoline-1,3-dione] | 0.05 to 0.5 µM | > 0.5 µM | 35 to 70% |  | 

Reference: patent publication US20260184710A1, “CASITAS B-LINEAGE LYMPHOMA PROTOONCOGENE B (CBL-B) DEGRADING COMPOUNDS AND ASSOCIATED METHODS OF USE” (Arvinas Operations, Inc., priority 2022, published 2026)
